We go through three compounds from patent US20160317419A1, “METHOD OF IMPROVING SKIN HEALTH AND COMPOSITIONS THEREFOR” (The Procter & Gamble Company, priority 2015, published 2016).

Type in all cases: cell-based
For test [1], the system named is human dermal fibroblasts obtained from the BJ cell line. The test can be described thus: ECAR Method: glycolytic ATP production rate of fibroblasts exposed to hydrogen peroxide. The conditions noted are these: for % Change from Control: vs media control. The protocol:
Glycolytic ATP production by fibroblasts exposed to hydrogen peroxide was determined using an XF Extracellular Flux brand analyzer available from Seahorse Bioscience, Massachusetts The analyzer measured extracellular acidification rate (“ECAR”) in real time, which correlates to glycolytic ATP production. The cells used in this test were frozen human dermal fibroblasts obtained from the BJ cell line commercially available from ATCC, Bethesda, Md. […] The fibroblasts were plated at 8×10^4 cells per well in gelatin-coated plates 24 hours prior to testing. Each well included 100 μL of the culture medium described above. The gelatin-coated plates are prepared by coating each well in a multi-well plate (e.g., 24-well or 96-well plates available from Seahorse Biosciences, Massachusetts) with 0.2% gelatin (protein solution available from Sigma) diluted with phosphate buffered saline (“PBS”). The gelatin is diluted 1:10 to 0.2% in sterile PBS at 37° C., and then 50 uL of the diluted gelatin solution is added to each well and incubated at room temperature for 30 minutes. Excess liquid is removed by aspiration without touching the wells and the surface is allowed to dry for at least 2 hours. Hydrogen peroxide is a well-known ROS, and is used in this example as a source of oxidative stress on the fibroblasts being tested. A stressor solution of hydrogen peroxide was prepared at 10× working concentration in the fibroblast test medium described above. The test agents (i.e., nicotinamide riboside, niacinamide, and nicotinamide riboside+niacinamide in combination) were prepared at 10× the final working concentration in the fibroblast test medium to provide test agent solutions. The stressor solution and the test agent solutions were warmed to 37° C. and pH adjusted to 7.4. A fibroblast test medium was made from Dulbecco's Modified Eagle Medium (available from Seahorse Bioscience), 25 mM glucose and 1 mM pyruvate. The fibroblast test medium was warmed to 37° C. and the pH adjusted to 7.4. The cells were grown and plated at 37° C. and 5% CO2 air. The culture medium in the wells was replaced by the fibroblast test medium 1 hour prior to taking measurements. Each well contained approximately 8×10^4 cells and 600 μL of fibroblast test medium (i.e., DMEM, 25 mM glucose and 1 mM pyruvate) at 37° C. and pH 7.4. The plates containing the samples to be tested were loaded into the analyzer and equilibrated according to the manufacturer's instructions. The test agent solutions and stressor solution were each placed in an automated injection port of the XF cartridge plate. The analyzer was programmed to sequentially run a two minute mix cycle, a two minute wait cycle, and a 3 minute measurement cycle continuously for at least 88 minutes. Data points were collected and recorded by the analyzer. The analyzer was allowed to complete three cycles prior to the addition of a stressor solution or test agent solution to provide a basal ECAR value. After the third cycle was completed (i.e., about 21 minutes after detection began), the test solution and/or stressor solution was added to the wells by the analyzer from the appropriate injection port. A stressor solution was added to the well in sufficient amount to provide 1.5 mM hydrogen peroxide in the well. The test agent solution was added in sufficient amount to provide 250 μM or 500 μM niacinamide or nicotinamide riboside in the well.

For test [2], the system named is keratinocytes. The test can be described thus: ATP Assay: ATP depletion caused by hydrogen peroxide in keratinocytes (Cell Titer-Glo). Particulars: 1 hour. On the procedure:
The keratinocytes were cultured in T150 flasks using EPILIFE brand culture medium (calcium free and phenol red free, supplemented with penicillin/streptomycin and keratinocytes growth supplement, Invitrogen cat# […]500). The keratinocytes were then plated in 24 well plates with 40,000 cells/well and 1 ml of culture medium. After 24 hours, the keratinocytes were treated with 500 uM hydrogen peroxide alone, 400 uM niacinamide, 400 uM nicotinamide riboside or a combination of niacinamide and nicotinamide riboside (400 uM each) for 1 hour. Untreated keratinocytes were used as a control (i.e., keratinocytes in culture medium). The keratinocytes were washed in PBS and ATP levels were measured using the Cell Titer-Glo® brand ATP assay available from Promega, Madison, Wis. as catalogue # G7571/2/3 according to the manufacturer's instructions. Luminescence was measured on a SPECTRAMAX M3 brand microplate reader (Molecular Devices, Sunnyvale, Calif.). The net luminescence for a test sample is calculated by subtracting the observed luminescence value for the control from the observed luminescence value for the test sample.
(ATP-based viability assays read luminescence as a measure of living cells.)

In test [3] the test system is antioxidant response element (ARE). Description: ARE Assay (ARE-32 luciferase reporter cell line). Particulars: 24 hrs, control subtracted. The protocol:
ARE activation was quantitated using the ARE-32 reporter cell line available from CXR-Biosciences as described in the ARE Assay below. ARE-32 is a stable MCF7 cell line containing pGL8x-ARE (8 copies of the rat GST ARE linked to the luciferase gene) and pCDNA3.1, which contains the neomycin selectable marker. Selection was performed in the presence of G418 and resistant clones were isolated. Clones were screened for induction of luciferase in response to tBHQ. The ARE-32 cells are maintained routinely in the DMEM (phenol red free) containing: 10% FBS, 50 units/ml penicillin & 50 μg/ml streptomycin, 0.8 mg/ml G418. Cells are subcultured every 3-4 days. Cells were frozen in medium that contains 90% FBS and 10% DMSO. In a 96 well-plate, seed 1×10^4 cells/well in 100 μl DMEM containing 50 units/ml penicillin, 50 μg/ml streptomycin, 0.8 mg/ml G418 and 10% FBS. Next, incubate the cells at 37° C. in a 5% CO2 incubator for 24 hrs, and then replace the medium with 100 μl fresh media. Treat with test compounds at 2 ul per well, positive control was 25 uM TBHQ. (10 mM tBHQ of stock solution freshly prepared in DMSO). Add 100 ul of media after treatment for a final assay volume of 200 uL. Incubate the cells at 37° C. in the CO2 incubator for another 24 hrs. Assay for luciferase activity with a STEADY-GLO brand assay system according to the manufacturer's instructions. A general schematic for how the ARE reporter assay operates to identify agents that promote transcription off the ARE is described in U.S. Publication No. 2011/0262570. The results of the test are illustrated in Table 1 and FIG. 3. The ARE activity for […] (“NR”), niacinamide (“N”) and the combination of nicotinamide riboside and niacinamide is reported as net luminescence in Table 1. Net luminescence for a test sample is determined by subtracting the luminescence value of the control from the luminescence value of the test sample. The calculated net luminescence for NR+N is the sum of the individual measured luminescence values for NR and N.
Background: Reporter assays use an easily measured gene product as a stand-in for the process of interest.

The mark [4] stands for this setting: 500 μM test agent with 1.5 mM hydrogen peroxide.
Where [5] appears, read: 400 uM (each) with 500 uM hydrogen peroxide.

For the compound `OO` [Hydrogen Peroxide, hydrogen peroxide, reference compound], in test [1] (1.5 mM hydrogen peroxide alone), the “Observed ECAR” value is listed as 8.96 mpH/min and the “% Change from Control” value is given as −70.0%. In test [2] (500 uM hydrogen peroxide alone), the “% depletion vs. control (ATP)” value is on record as about 97.5% and the “Net Luminescence AVG” value came to 1556. Also, in test [2] (500 uM hydrogen peroxide alone, listed as H2O2), the “% depletion vs. control (ATP)” value was determined as 97.5%.
Take `NC(=O)c1cccnc1` [N, niacinamide]: the “Net Luminescence” value is given as 13 in test [3] (NR 0.011 w/v %, N 0.0125 w/v %); 26 in test [3] (NR 0.021 w/v %, N 0.025 w/v %); 71 in test [3] (NR 0.042 w/v %, N 0.05 w/v %); 75 in test [3] (NR 0.0842 w/v %, N 0.1 w/v %). Moreover, the “Observed ECAR” value in test [1] (setting [4]) was 15.35 mpH/min. The “% Change from Control” value in test [1] (setting [4]) is −48.6%. For the same compound, the “% depletion vs. control (ATP)” value was 89.7% in test [2] (setting [5]) and “about 89.7%” in test [2] (400 uM (each) with 500 uM hydrogen peroxide, listed as niacinamide). In addition, in test [2] (setting [5]), the “Net Luminescence AVG” value was 6539.
For nicotinamide riboside [NR], the “Net Luminescence” value in test [3] (NR 0.011 w/v %, N 0.0125 w/v %) came to 205; in test [3] (NR 0.021 w/v %, N 0.025 w/v %), 594; in test [3] (NR 0.042 w/v %, N 0.05 w/v %), 1845; in test [3] (NR 0.0842 w/v %, N 0.1 w/v %) it was 5176. In addition, the “Observed ECAR” value in test [1] (setting [4]) is recorded as 14.31 mpH/min. Further, the “% Change from Control” value in test [1] (setting [4]) is given as −52.1%. Further, the “% depletion vs. control (ATP)” value is reported as 96.9% in test [2] (setting [5]) and about 96.9% in test [2] (400 uM (each) with 500 uM hydrogen peroxide, listed as nicotinamide riboside). The “Net Luminescence AVG” value in test [2] (setting [5]) came out at 1971.5.
